Results on three substances are retold here after article PMC2626591, “Phage display-derived inhibitor of the essential cell wall biosynthesis enzyme MurF” (BMC Biochemistry, 2008).

The subject of one experiment is MurF. As to conditions: 12-mer phage library, elution with glycine-HCl, 1 mM ATP or 1 mM D-Ala-D-Ala; ten phages sequenced per elution condition; in words.
Experiment [1] has as its target T1, P. aeruginosa MurF (Pseudomonas aeruginosa, UniProt Q9EY48).
T1 construct: made in house
As to the kind of experiment: MurF inhibition by MurFp1, spectrophotometric (Lanzetta reagent) ATPase assay. In kind it is biochemical. On the procedure: (§1) The ATPase activity of P. aeruginosa MurF was quantified by a colorimetric assay that measures the release of nanomoles of inorganic phosphate using the Lanzetta reagent. The reaction mixture (100 μl), held at room temperature, contained 40 nM of purified MurF from a fresh aliquot, 1 mM ATP, 100 μM UDP-MurNAc-Ala-Glu-meso-A2pm and 5 mM D-Ala-D-Ala in buffer C (100 mM Tris-HCl pH 8.6, 40 mM KCl, 500 mM NaCl, 1 mg/ml bovine serum albumin and 10 mM MgCl2). Reaction time was 15 min before adding 800 μl of the Lanzetta reagent. After an additional 5 min for colour development, 100 μl of 34% (w/v) sodium citrate was added to stop the reaction. The optical density at 660 nm was immediately measured with a Cary spectrophotometer (Varian, Mississauga, Ontario, Canada). The amount of inorganic phosphate released by MurF was determined by comparison to the linear portion of a phosphate standard curve with a minimum R^2 value of 0.99. The phosphate content of each component in the reaction was subtracted from the total phosphate measured, negative controls were done without enzyme or substrate, and assays were done in triplicate. Different concentrations of each substrate and NaCl were tested to determine optimal conditions for the study of the activity of MurFp1.
MurFp1 was synthesized and purified as previously described. Peptide purity (> 95%) was analyzed by HPLC and molecular mass (1424.68 daltons) was confirmed by MALDI-TOF mass spectroscopy. […]
Inhibition of MurF enzymatic activity by MurFp1 was measured by the spectrophotometric assay described above. […] The effect of non-specific peptides was analysed on MurF enzymatic activity, with and without UDP-MurNAc-Ala-Glu-A2pm in the pre-incubation step. […]
Kinetic data were fitted to the appropriate model equations using the Sigmaplot Enzyme Kinetics Module. Steady-state inhibition kinetic parameters were determined by nonlinear regression analysis using the least squares method as a reference to ensure accurate dataset fitting and to generate error estimates for each individual observation. […]

Experiment [2] addresses T1, P. aeruginosa MurF. The experiment is described as follows: MurF kinetics with respect to D-Ala-D-Ala, spectrophotometric (Lanzetta reagent) ATPase assay. It is filed as biochemical. On the procedure: as §1
The maximal specific activity, the catalytic constant (kcat), the Michaelis-Menten constant (Km) and the enzyme efficiency (kcat/Km) were determined for MurF with respect to D-Ala-D-Ala. Kinetic parameters were determined by nonlinear regression analysis with a square matrix of enzyme velocities following the Michaelis-Menten equations using the Enzyme Kinetics Module version 1 of SigmaPlot version 8.

What is called inhibition is the relative decrease from the control value, in per cent. Low readings indicate little suppression, high ones strong suppression. Broadly, the IC50 is the midpoint of a concentration-inhibition curve. Read a low IC50 as greater potency in that assay. The Km is the substrate concentration at which the rate is half of its maximum. A word on the kcat/Km: it is the turnover number divided by the Michaelis constant.

Ends that are not written are not given here.

T1 sequence (Q9EY48 entry or part of it): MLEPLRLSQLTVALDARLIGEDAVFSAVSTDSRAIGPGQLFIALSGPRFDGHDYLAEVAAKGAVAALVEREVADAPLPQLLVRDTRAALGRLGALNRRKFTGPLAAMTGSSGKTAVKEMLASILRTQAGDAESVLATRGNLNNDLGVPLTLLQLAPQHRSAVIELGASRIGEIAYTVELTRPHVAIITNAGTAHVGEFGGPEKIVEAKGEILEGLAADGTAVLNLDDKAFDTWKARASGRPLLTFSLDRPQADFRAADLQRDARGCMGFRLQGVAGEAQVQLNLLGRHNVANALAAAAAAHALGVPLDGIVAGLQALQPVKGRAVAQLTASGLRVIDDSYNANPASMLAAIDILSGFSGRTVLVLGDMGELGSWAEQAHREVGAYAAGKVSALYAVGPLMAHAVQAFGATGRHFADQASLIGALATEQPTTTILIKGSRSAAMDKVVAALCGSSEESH

Turning to VSANRHLGGNLP, the “recovery in third round of bio-panning” value with MurF is “recovered once by both the ATP and D-Ala-D-Ala elutions”.

Substance TMGFTAPRFPHY [MurFp1] gave an inhibition at 2000 µM against P. aeruginosa MurF [1] (2 mM MurFp1, 30-minute pre-incubation of MurF with MurFp1, no substrate in pre-incubation) of 50%. Inhibition at P. aeruginosa MurF [1] (30 min pre-incubation with MurF, MurFp1 and UDP-MurNAc-Ala-Glu-meso-A2pm, 40 nM MurF, pH 8.6, room temperature, 15 min reaction, OD 660 nm, assays in triplicate) was half-maximal at 250 ± 10 µM (IC50). Besides, at P. aeruginosa MurF [1] (each MurFp1 concentration used, 30 min pre-incubation with UDP-MurNAc-Ala-Glu-A2pm, in words), the “effect on Km for D-Ala-D-Ala” value is given as “remained almost the same”.

As for D-Alanyl-D-Alanine [D-Ala-D-Ala], the Km at P. aeruginosa MurF [2] (MurF, with respect to D-Ala-D-Ala, pH 8.6, room temperature) was determined as 115 ± 10 µM. For the same substance, at P. aeruginosa MurF [2] (ligation to UDP-MurNAc-Ala-Glu-meso-A2pm, from kcat), the “ligations of D-Ala-D-Ala per MurF active site (kcat)” value is reported as “about 100 per min”. The kcat/Km on P. aeruginosa MurF [2] (with respect to D-Ala-D-Ala, pH 8.6, room temperature) came out at 14200 ± 2500 M⁻¹ s⁻¹.
